These are literature values, as cited in patent US7767228B2, “Pharmaceutical composition for oral application and method for preparing thereof” (Cum Pharma Consulting Anstalt, priority 2004, dated 2010).

Molecules are shown by their SMILES.

Regarding `O=C(C1CCCCC1)N1CC(=O)N2CCc3ccccc3C2C1` (stereo not shown) [Praziquantel, praziquantel], the solubility in water result is given as “very low”.
